Results on one substance are retold here after patent US20090263470A1, “Vaccine Compositions Comprising Virosomes and a Saponin Adjuvant” (priority 2004, published 2009).

Read-outs that look alike come from different tables or passages of the source.

Series [1] concerns red blood cells. The note with it: OD at 540 nm.
For series [2], the system named is red blood cells. The series is described as follows: Lytic activity of QS21 alone versus QS21 in the Inflexal V formulation against red blood cells, OD at 540 nm. It counts as cell-based. The note with it: equivalent of 2.5 μg QS21 in 900 μl PBS pH 7.4 + 100 μl red blood cells, 30 minutes at RT. As to the method:
500 μl Inflexal V® vaccine, has been adjuvanted by the addition of 50 μg QS21. The resulting composition of this mixture is: +/−117 μg of Lecithin, 45 μg HA, 50 μg QS21 in 525 μl. The lytic activity of QS21 in this formulation has been compared to the lytic activity of QS21 alone.
Practically, a volume of the formulation “Inflexal V+QS21” containing the equivalent of 2.5 μg of QS21 is added to PBS pH 7.4 to reach a final volume of 900 μl. In parallel, 2.5 μg QS21 is taken and also diluted to 900 μl with PBS.
100 μl of red blood cells (10× diluted) are added to those 2 samples as described above. Samples are let for 30 minutes at RT. After centrifugation at 2000 rpm, the OD of the supernatant is red at 540 nm.

For series [3] the following is noted: QS21 injected parenterally as a free molecule; cited from earlier work.

With QS21, the OD was determined as 0.217 in series [1] (1 μg QS21), 0.631 in series [1] (1.5 μg QS21), 0.891 in series [1] (2.5 μg QS21) and 1.63 in series [2]. In addition, in series [3], the injection site observation entry is listed as “necrosis”.
